Measured values from PubChem BioAssay AID1902 (Broad Institute, 2009).
Activity calls are given as the source filed them.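 Rule for the calls: active = EC50 no more than a set limit of log units above the highest dose; inactive = the rest.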

Each compound was assayed against S. pyogenes SKKanGAS, kanamycin survival, BacTiterGlo, 6 h (assay: S. pyogenes SKKanGAS kanamycin growth inhibitors – SKKanGAS strain, luminescence, dose confirmation, streptokinase promoter inhibitor project, dose response (AID 1902);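 note: lower survival reflects blocked streptokinase promoter driving kanamycin resistance gene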).

Compound	EC50
CC1CCN(c2ccccc2NC(=O)c2cc3ccccc3o2)CC1	11.7 µM
Cc1cccc(Cc2cnc(N3C(=N)SC(C)C3=O)s2)c1 (stereo not given)	0.131 µM
CNC[C@H](CC1CCCCC1)NC[C@H](Cc1ccccc1)NCCC12CC3CC(CC(C3)C1)C2	2.94 µM
O=c1c2ccccc2sn1-c1ccccc1	1.11 µM
CCn1c(NC(=O)c2cccc(Cn3cc(Cl)cn3)c2)nc2ccccc21	1.02 µM
CC(Nc1nc(-c2ccccc2O)nc2ccccc12)c1ccccc1 (stereo not given)	8.79 µM
O=C(NCCS(=O)(=O)N1CCN(c2ccccc2F)CC1)C1CC(=O)N(c2ccc(F)cc2)C1 (stereo not given)	> 15 µM (inactive)
O=c1c2cc(Cl)ccc2nc(-c2ccc(Cl)c(Cl)c2)n1O	0.235 µM
Cc1ccc(-c2csc3ncnc(NS(=O)(=O)c4ccc(Cl)cc4)c23)cc1	6.82 µM
Cc1ccc(N(C)S(=O)(=O)c2cccc(C(=O)Nc3nc4ccccc4[nH]3)c2)cc1	1 µM
CC1=C(C#N)c2nc(N)c(C#N)c(C)c2/C1=C\c1ccc(C)cc1	6.18 µM
O=C(N/N=C/c1cc(Br)cc([N+](=O)[O-])c1O)c1ccc(NC(=O)c2ccc(F)cc2)cc1	4 µM
CCc1ccccc1NC(=O)NC(C)c1ccc2c(c1)OCO2 (stereo not given)	> 15 µM (inactive)
CCC1(C)Cc2ccccc2-c2nc(-c3ccccc3)oc(=O)c21 (stereo not given)	5.51 µM
CS(=O)(=O)c1ccc([C@@H](O)[C@@H](CO)NC(=O)C(Cl)Cl)cc1	0.74 µM
Cc1nc(NS(=O)(=O)c2ccc(Cl)s2)c2c3c(sc2n1)CCCC3	3.98 µM
O=C(NNc1ccccc1Cl)C(O)(c1cccc(C(F)(F)F)c1)c1cccc(C(F)(F)F)c1	2.61 µM
N=C(N)c1ccc(OCCCCCOc2ccc(C(=N)N)cc2)cc1	< 0.06 µM
CCOC(=O)C1=C(C)N=c2s/c(=C/c3ccc(OCC(=O)O)c(OC)c3)c(=O)n2C1c1ccc(Cl)cc1 (stereo not given)	5 µM
CCN1CCN(Cc2ccc(NC(=O)c3ccc(C)c(NC(=O)C(=O)c4c[nH]c5ccccc45)c3)cc2C(F)(F)F)CC1	3.34 µM
C/C(=N\NC(=O)c1ccccc1N)c1ccc(NC(=O)Cc2ccccc2)cc1	4.95 µM
O=[N+]([O-])c1ccc(O)c(-c2nc(-c3ccccc3)c(-c3cccs3)[nH]2)c1	0.979 µM
COc1c(CC=C(C)C)cc(C2CC(=O)c3c(O)cc(O)cc3O2)cc1CC=C(C)C (stereo not given)	1.99 µM
Cc1cc(Oc2cnn(C(C)(C)C)c(=O)c2Cl)cc(C(C)C)c1	4.37 µM
CCOc1ccc(Nc2nc(N3CCCCC3)nc(N3CCCCC3)n2)cc1	0.65 µM

Compound	EC50
Fc1cccc2sc(Nc3nnc(-c4ccco4)o3)nc12	0.307 µM
COc1ccc(C2CC(c3ccccc3)=NN2C(=O)c2cccs2)cc1 (stereo not given)	7.84 µM
O=C(N/N=C/c1ccc([N+](=O)[O-])o1)c1cn(-c2ccccc2)nc1-c1ccc(F)cc1	1.16 µM
Cc1ccc(S(=O)(=O)Nc2ccc(Cl)cc2)cc1NC(=O)c1cc2c(s1)CCCC2	6.63 µM
O=C(Nc1ccc(F)cc1)c1nc2c(nnn2Cc2cccc3ccccc23)c(=O)[nH]1	2.44 µM
c1ccc2c(c1)ncn2CCCOc1ccc2c(c1)CCC2	7.49 µM
C/C(=N\NC(=O)c1ccc(C)cc1)c1c(C)[nH]n(-c2ccccc2)c1=O	2.15 µM
COc1ccc(/C=C/C(=O)NC(=S)NNC(=O)Cc2cccs2)cc1	1.23 µM
COc1ccccc1C(=O)NNC(=S)NC(=O)c1ccco1	0.383 µM
O=S(=O)(Nc1nccs1)c1ccc(Nc2nnc(-c3ccccc3)c3ccccc23)cc1	2.51 µM
Clc1ccc(N2COC3c4cccc5cccc(c45)C32)cc1 (stereo not given)	7.55 µM
CC[C@@H]1CC=C[C@H]2[C@H]1C(=O)N(Cc1ccccc1)[C@H]2c1ccc(OC)c(Cl)c1	4.15 µM
O=C(O)c1ccc(N/N=C/c2ccc(-c3cc(Cl)ccc3Cl)o2)cc1	2.48 µM
Cc1noc(C)c1S(=O)(=O)N(CCc1ccccc1)Cc1ccccc1	5.83 µM
O=C(O)c1ccc(N2C(=O)CC(SC(=NCc3ccc4c(c3)OCO4)Nc3ccc(F)cc3)C2=O)cc1 (stereo not given)	8.24 µM
Cc1c(C(=O)Nc2ccc3c(c2)OCCO3)sc2nc(-c3ccccc3)cn12	2.52 µM
Cc1cccc(-n2ncc3c2CCCC3NC(=O)CCN2Cc3ccccc3C2=O)c1C (stereo not given)	> 15 µM (inactive)
CC(C)OC(=O)c1cccnc1N1CCN(c2cccc(Cl)c2)CC1	4.36 µM
O=S(=O)(Nc1ccc(N=Nc2ccc(O)c3ccccc23)cc1)c1ccccc1	7.08 µM
O=[N+]([O-])c1ccc(-c2nc(Nc3cccc(O)c3)c3ccccc3n2)cc1	10.7 µM
Cc1cccc(OCC(=O)Nc2ccncc2)c1	> 15 µM (inactive)
Cc1ccc(Nc2nc(N)nc(CN3CCN(c4ccccc4)CC3)n2)cc1Cl	13.2 µM
S=c1[nH]nc(-c2cc3c(s2)-c2ccccc2CC3)o1	3.87 µM
Oc1c(Br)cc(Br)cc1Oc1ccc(Br)cc1Br	1.77 µM
O=C(Nc1ccccc1)Nc1cc(Cl)cc(Cl)c1	6.8 µM

Compound	EC50
Cc1cc(C)c2[nH]c(O)c(N=Nc3ccc(C(=O)O)cc3)c2c1	1.8 µM
CN(C(=O)Cc1c(C(=O)O)n(C)c2ccccc12)c1ccc(F)cc1	> 15 µM (inactive)
COc1ccc(Cn2c(SCc3ccc(C)cc3)nc3cc(OC)c(OC)cc3c2=N)cc1Cl	2.65 µM
Oc1ccccc1/C=N/Nc1nc2ccccc2o1	2.42 µM
Cc1cccc(C(=O)CC(=O)c2cc(Cl)ccc2O)c1	1.06 µM
Oc1ccc(CN2CCN(c3ccccc3)CC2)c2cccnc12	3.76 µM
Cc1ccc(NS(=O)(=O)c2cc([N+](=O)[O-])ccc2NNC(=S)Nc2cccc(Cl)c2)c(C)c1	0.865 µM
COc1ccc(C(=O)NNC(=S)NC(=O)c2ccco2)cc1	2.29 µM
COc1ccc(O)c(C(=O)c2cc(SCC(=O)O)c3nc4sc5c(c4c(=O)n3c2)CCCC5)c1	4.1 µM
CC(C)Cn1c(=O)c(C(=O)Nc2ccncc2)c(O)c2ccccc21	4.17 µM
CN(C)c1ccc(O)c2c1CC1CC3C(N(C)C)C(=O)C(C(N)=O)=C(O)[C@@]3(O)C(=O)C1=C2O (stereo not given in full)	0.096 µM
O=C(c1cc(-c2ccccc2)nc2ccccc12)N1CCN(c2ccccc2O)CC1	6.96 µM
Cn1c2ccccc2c(=O)c2c(=O)n(-c3ccc(F)cc3)c(-c3cccs3)nc21	4.76 µM
CC(C)[C@H](NC(=O)N1CC(=O)Nc2ccccc21)C(=O)N[C@@H](Cc1ccccc1)C(=O)O	> 15 µM (inactive)
Cc1cc2nc(N3C(=O)CNC3=S)sc2cc1C	2.21 µM
Cc1ccc(C(=O)NC(=S)NNC(=O)COc2ccccc2C)cc1	0.161 µM
CO[C@H]1C=CO[C@@]2(C)Oc3c(C)c(O)c4c(O)c(c(C=NN5CCN(C)CC5)c(O)c4c3C2=O)NC(=O)C(C)=CC=C[C@H](C)[C@H](O)[C@@H](C)[C@@H](O)[C@@H](C)[C@H](OC(C)=O)[C@@H]1C	< 0.06 µM
CC(C)C(NC(=O)C(c1ccccc1)c1ccccc1)c1nc2ccccc2[nH]1 (stereo not given)	2.96 µM
O=C(/C=C/c1ccco1)Nc1nc(-c2ccccn2)cs1	0.362 µM
Cc1ccc2nc(-c3ccc(NS(=O)(=O)c4ccc(F)c(F)c4)cc3)sc2c1	2.69 µM
Cc1ccc(C(=O)CC(=O)c2ccccc2C)c(O)c1	5.18 µM
COc1cc(/C=C/c2ccc3cccc(O)c3n2)c(Br)cc1O	0.35 µM
COc1cccc(/C=N/Nc2cc(N3CCOCC3)ncn2)c1O	7.64 µM
N=C1SC(c2ccccc2)C(=O)N1c1ncc(Cc2ccccc2Cl)s1 (stereo not given)	0.177 µM
CCc1c(C2(O)CCCCC2)[nH]c2c(C(=O)OC)cc(Cl)cc12	4.12 µM
